For one test, the target named is T1, K19 PHFs (Homo sapiens, UniProt P10636).
T1 construct: construct K19 containing three repeats; made in house; host or cells: E. coli
In words: Depolymerisation of K19 PHFs at prolonged incubation times. The following applies: 0.5 μM compound, after 12 hours. It is filed as biochemical. Here is the method: Untreated controls were measured in parallel and subtracted as background.

A further test addresses T2, Aβ1-40 fibrils (Homo sapiens, UniProt P05067).
T2 construct: Commercial human Aβ1-40 was obtained from Calbiochem; purchased Calbiochem
In words: Disassembly of pre-formed Aβ fibrils (thioflavine T). It is filed as biochemical. The following applies: 60 μM compound, 10 μM Aβ1-40. As for the experimental part:
Besides the activity of the compounds towards tau fibres, their specificity is an important issue, i.e. the ability to discriminate between different types of aggregates. Therefore, an analysis of the influence of the compounds (60 μM) on amyloid fibrils made from the Aβ1-40 peptide, both in terms of inhibition of de novo filament formation and depolymerisation was performed (FIGS. 8A-B). These fibres are also abundant in Alzheimer brain and contain a core of cross-β-structure, but are located outside the cells, in contrast to the intracellular PHFs.
Commercial human Aβ1-40 was obtained from Calbiochem (Schwalbach, Germany) and stored at −20° C. The AD peptide was routinely dissolved in 100% DMSO to obtain a 2 mM stock solution, which was subsequently stored frozen at −20° C. […] For analysis 5 μl of this solution were added to 45 μl 10 mM phosphate buffer containing 6 μM thioflavine T, pH 6.0, after 30 minutes incubation at room temperature the fluorescence was measured at 504 nm emission by an excitation of 409 nm. To correlate fibril morphology with the fluorescence signal, aliquots of the Aβ1-40 solutions were simultaneously prepared for electron microscopy. […]

The test system of the next test is K18 filaments (Y310W). The test can be described thus: Tryptophan fluorescence depolymerisation assay, K18 filaments. In kind it is biochemical, human. The following applies: 60 μM compound. Here is the method: (§1) For the fluorescence depolymerisation assay, 60 μM inhibitor compound were added to pre-formed PHFs (10 μM) and incubated overnight at 37° C. PHFs were formed by incubation of tau construct K19/Y310W (50 μM) or K18/ΔK280/Y310W with 12.5 μM heparin in volume of 100 μl at 37° C. in PBS, pH 7.4. Incubation time was three days. The formation of aggregates was observed as a shift of the emission maximum from ˜354 nm to ˜340 nm.
All other compounds yielded emission maxima of the protein after treatment around 350-353 nm, close to the value of soluble tau, indicating a depolymerisation efficiency of about 80-90%.
(§2) FIG. 5: Disassembly of preformed PHFs measured by tryptophan fluorescence shift assay and filter assay. Experiments were performed with tau constructs containing the Y310W mutation as in FIG. 3.

The subject of test [1] is PHFs from K18/ΔK280/Y310W. The test can be described thus: Tryptophan fluorescence depolymerisation assay, K18/ΔK280. In kind it is biochemical, human. The following applies: 60 μM compound. Here is the method:
as §1, §2

Test [2] has as its system N2a cells expressing K18/ΔK280. In words: Tau aggregation in cells, sarkosyl extraction and Western blot densitometry. It is filed as cell-based, mouse. The settings on record: 15 μM emodin. The text has this: A crucial test for the application of inhibitors is their effect in cell models of tauopathy. A neuroblastoma (N2a) cell line which allows inducible expression of the tau construct K18ΔK280 under the control of the tet-on transactivator was generated. This construct was chosen because it contains the FTDP17 mutation ΔK280 in the 4-repeat domain K18 which promotes the formation of β-structure and therefore aggregates readily, even in the absence of polyanionic inducers (von Bergen et al., 2001; {Barghorn, 2002).
The tau construct K18/ΔK280 was expressed in the mouse neuroblastoma cell line N2a in an inducible manner under the control of the reverse tetracycline-controlled transactivator (rtTA) as described elsewhere (Gossen & Bujard, 2002). […] After 3-7 days the cells were harvested and tested for tau aggregation, thioflavin S fluorescence, and viability.
The levels and solubility of the K18/ΔK280 tau protein were determined by the method of Greenberg and Davies (1990) which makes use of the insolubility of protein aggregates after treatment with sarkosyl. The supernatant and sarcosyl-insoluble pellets were analysed by Western blotting with the pan-tau antibody K9JA and analysed by densitometry. Aggregation of tau in cells was tested by the fluorescence of thioflavine S. ThS signals were scored in three independent fields containing 40 cells each. […]
(In western blotting, separated proteins are transferred to a membrane and probed.)

T1 sequence (P10636 with tags, fused parts or gaps isoform P10636-2 limits assumed): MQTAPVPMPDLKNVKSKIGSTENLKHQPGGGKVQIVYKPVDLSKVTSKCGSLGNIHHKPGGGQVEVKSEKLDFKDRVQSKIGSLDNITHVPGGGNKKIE
T2 sequence (P05067 672-711): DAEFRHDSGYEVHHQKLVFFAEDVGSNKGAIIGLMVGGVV

As to `O=C(c1ccccc1)c1ccc(O)c(O)c1O` [PHF005, 1-Phenyl-1-(2,3,4-trihydroxy-phenyl)-methanone], the “depolymerisation of K19 PHFs” value on K19 PHFs is recorded as “Nearly no effects”. Further, the “depolymerisation activity, Aβ fibrils” value at Aβ1-40 fibrils is listed as approximately 50%. The “depolymerisation efficiency, K18 filaments, Trp fluorescence” value with K18 filaments (Y310W) was determined as 80%. Moreover, the “depolymerising PHFs, K18/ΔK280, Trp fluorescence” value in test [1] is reported as “most potent agent”.

For `Cc1cc(O)c2c(c1)C(=O)c1cc(O)cc(O)c1C2=O` [Emodin, 1,3,8-Trihydroxy-6-methyl-anthraquinone], the “reduction of sarkosyl-insoluble fraction” value in test [2] (7 days) is given as 5 fold. Moreover, the “sarkosyl-insoluble fraction of total cellular tau (K18/ΔK280)” value in test [2] (7 days induction, untreated 14%) came out at 3%.

(Values after patent publication US20060223812A1, “Treating neurodegenerative conditions” (MAX-PLANCK-GESELLSCHAFT ZUR FORDERUNGDER WISSENSCHAFTEN, …, priority 2004, published 2006).)
